A melting point compilation (Tetko et al.)

With `Cn1nnnc1-c1cccc(S(N)(=O)=O)c1` the melting point was 168 to 170 °C.

With `COC(=O)C(Cc1c[nH]cn1)NC(=O)CCc1ccccc1` (centres undefined) the melting point was 152 to 154 °C.

For `COc1ccccc1C1(C(=O)O)CCC1`, the melting point was 149 to 151 °C.

`O=C(O)CSCc1ccc(Cl)s1` gave a melting point of 66 to 68 °C.

`Nc1ccc(N2CCCC2=O)c(Cl)c1` gave a melting point of 184 to 186 °C.

For `O=C(Nc1cccc(O)c1)c1ccccc1`, the melting point was 171 to 173 °C.

With `O=C(O)CCC(=O)c1ccc2ccccc2c1` the melting point was 172 to 174 °C.

With `CN(C(=O)CCl)C1(c2ccccc2Cl)CCCCC1=O` (centres undefined) the melting point was 110 to 112 °C.

In the case of `Nc1cccc(-c2ccc3ccccc3c2)n1`, the melting point was 124 to 126 °C.

In the case of `O=C(O)CN1C(=O)CCCc2sccc21`, the melting point was 138 to 140 °C.

`C=CCn1c(S)n[nH]c1=O` showed a melting point of 135 to 137 °C.

`O=[N+]([O-])c1ccc(Cl)c(S(=O)(=O)Nc2nc3ccc(Cl)cc3s2)c1` showed a melting point of 328 to 330 °C.

`CNc1ncc(C(=O)OC)s1` gave a melting point of 115 to 117 °C.

With `O=C(CBr)c1ccc2c(c1)CCC2` the melting point was 57 to 59 °C.

`ClCc1cnc(-c2ccccc2)s1` showed a melting point of 57 to 59 °C.

`CC(C)(C)OC(=O)N1CCc2[nH]c(=O)c(C#N)cc2C1` showed a melting point of 239 to 241 °C.

Compound `Nc1cc(C(=O)O)ccc1Oc1ccccc1` has a melting point of 146 to 148 °C.

In the case of `Cc1nn(-c2ccccc2)c(N2CCCC2)c1C=O`, the melting point was 71 to 73 °C.

In the case of `Cc1nc2ccccn2c1C(=O)NN`, the melting point was 188 to 190 °C.

For `Cc1nc(CSCC(=O)O)cs1`, the melting point was 155 to 157 °C.

Compound `COc1ncncc1N` has a melting point of 71 to 73 °C.

`CNc1ccc(C)nn1` gave a melting point of 162 to 164 °C.

Work on `CCn1c(S)nnc1-c1ccccc1OC` yielded a melting point of 171 to 173 °C.

Compound `NNC(=O)Nc1ccc(Br)cc1Cl` has a melting point of 163 to 165 °C.

Compound `Cn1cnnc1Sc1ccc(C=O)cc1[N+](=O)[O-]` has a melting point of 171 to 173 °C.

With `NS(=O)(=O)NCc1ccccn1` the melting point was 138 to 140 °C.

`Cc1ccc(S(=O)(=O)N2CCOCC2)cc1C(=O)O` showed a melting point of 148 to 152 °C.

`CCCn1c(N)nc2ccccc21` showed a melting point of 114 to 116 °C.

With `OC1(Cc2ccccc2)CCCC1` the melting point was 56 to 58 °C.

Work on `FC(F)Sc1nc2ccccc2[nH]1` yielded a melting point of under 17 °C.

Compound `O=C(O)CCc1c(-c2ccccc2)[nH]c2ccc(F)cc12` has a melting point of 161 to 163 °C.

`CC(C)(C)CCN1CCNCC1` gave a melting point of 119 to 122 °C.

`CCOC(=O)c1cc2c(C)cc(C)cc2[nH]1` gave a melting point of 119 to 121 °C.

Compound `COc1ccc(CN2CCNCC2)cc1OC` has a melting point of 27 to 40 °C.

Work on `Cc1ccnc(-c2cccc(N)c2)n1` yielded a melting point of 123 to 125 °C.

In the case of `O=C(NCc1ccc2c(c1)OCO2)C(Cl)c1ccccc1` (centres undefined), the melting point was 104 to 106 °C.

`O=C(O)Cc1csc(-c2ccoc2)n1` gave a melting point of 128 to 130 °C.

Compound `Cc1cc(C(=O)O)c(C)n1-c1ccccc1` has a melting point of 213 to 215 °C.

For `FC(F)(F)c1ccnc(N2CCNCC2)n1`, the melting point was 49 to 51 °C.

With `CC(C)(C)OC(=O)c1cc(C(=O)O)nn1-c1ccccc1` the melting point was 259 to 261 °C.

Compound `Nc1cc(NC(=O)c2ccccc2I)ccc1F` has a melting point of 202 to 204 °C.

Compound `CSc1cccc(NC2CCN(C)CC2)c1` has a melting point of 76 to 78 °C.

Compound `CCOC(=O)C(=O)CC(=O)c1ccc(Cl)cc1Cl` has a melting point of 68 to 70 °C.

With `Clc1cc(Cl)cc(-c2nnc(Br)s2)c1` the melting point was 154 to 156 °C.

`CC(O)c1nc2ccc(Cl)cc2n1C` (centres undefined) showed a melting point of 149 to 151 °C.

`CCOC(=O)c1[nH]c(C)c(C(=O)OCC)c1CC` showed a melting point of 108 to 110 °C.

With `Cc1ccc(C)c(OCc2nnc(S)o2)c1` the melting point was 135 to 137 °C.

`CN(C)C(=O)Sc1cnc2nc(C#N)c(C#N)n2c1` showed a melting point of 180 to 182 °C.

Compound `NCC1CC(O)CN1Cc1ccccc1` (centres undefined) has a melting point of 54 to 56 °C.

Work on `NCc1ccc(OCCOc2ccc(Cl)cc2)cc1` yielded a melting point of 130 to 132 °C.

In the case of `CC(C)(C)Sc1ccc(C#N)cn1`, the melting point was 69 to 71 °C.

Work on `O=C1Nc2cc(F)cc(F)c2C1=O` yielded a melting point of 229 to 231 °C.

With `CC(C)CC(C)(N)C(N)=O` (centres undefined) the melting point was 71 to 73 °C.

Compound `COC(=O)c1cc(Br)cc(N)c1Cl` has a melting point of 73 to 75 °C.

`CC(NC(=O)c1cccs1)C(=O)O` (centres undefined) showed a melting point of 163 to 165 °C.

Work on `COc1ccc(Cl)c(NC(=O)NN)c1` yielded a melting point of 159 to 161 °C.

`CCCOc1ccc(C(=O)O)cc1N` gave a melting point of 122 to 124 °C.

Compound `CCCc1nc2c(c(=O)[nH]1)CCN(Cc1ccccc1)C2` has a melting point of 171 to 173 °C.

With `N#Cc1ccc(Cn2cnc(N)n2)cc1` the melting point was 169 to 171 °C.

For `ClCc1nc(-c2cccnc2)no1`, the melting point was 87 to 89 °C.

For `CN(C)c1ccc(C(N)=S)cc1`, the melting point was 117 to 119 °C.

In the case of `COc1ccc(/C=N/OCC(=O)O)cc1`, the melting point was 101 to 103 °C.

In the case of `CN1CC(=O)NC(=O)C1`, the melting point was 99 to 101 °C.

In the case of `Cn1c(Cl)nc2ccccc21`, the melting point was 111 to 113 °C.

In the case of `OCc1nc2ccccc2o1`, the melting point was 59 to 61 °C.

With `O=C(O)C1CNCc2ccccc21` (centres undefined) the melting point was 233 to 235 °C.

Work on `CCOC(=O)c1c(C)oc2nc(CCl)[nH]c(=O)c12` yielded a melting point of 197 to 199 °C.

`CCn1c(C=O)nc2ccccc21` gave a melting point of 49 to 51 °C.

Compound `CC1(C)SC(=O)NC1=O` has a melting point of 77 to 79 °C.

`O=C(Nc1ccc2[nH]ccc2c1)c1ccc(F)cc1Br` showed a melting point of 185 to 187 °C.

With `COC(=O)C(=O)NN` the melting point was 115 to 117 °C.

Work on `Clc1cc(Cl)nc(C2CC2)n1` yielded a melting point of 39 to 41 °C.

In the case of `Cc1nc(O)nc(C)c1CC(=O)O`, the melting point was 271 to 273 °C.

With `Nc1nc2ccccc2n1CCCn1ccnc1` the melting point was 178 to 180 °C.

In the case of `CCc1n[nH]c(N)n1`, the melting point was 154 to 156 °C.

`Brc1cnc2nc[nH]c2c1` gave a melting point of 217 to 219 °C.

`O=C(O)CSc1cnc2ccccc2n1` gave a melting point of 178 to 180 °C.

Compound `Cc1cnc(O)c([N+](=O)[O-])c1` has a melting point of 247 to 249 °C.

For `Cc1cc(SC#N)cc(C)c1N`, the melting point was 82 to 84 °C.

In the case of `CCc1nc(NC(=O)CCl)sc1C`, the melting point was 124 to 126 °C.

Compound `O=C(O)c1ccc(S(=O)(=O)CC(F)(F)F)cc1` has a melting point of 239 to 241 °C.

For `COc1cc(F)c([N+](=O)[O-])cc1F`, the melting point was 78 to 80 °C.

`O=C(CCl)N1CCN(C(=O)Nc2ccccc2)CC1` showed a melting point of 168 to 170 °C.

In the case of `CC1=CC=CC(=C2Nc3cc(F)ccc3N2C2CC2)C1=N`, the melting point was 149 to 151 °C.

Work on `O=C(CBr)c1c[nH]c2ncccc12` yielded a melting point of 209 to 211 °C.

Work on `CC(C)Oc1cc(Br)cc(C(=O)O)c1` yielded a melting point of 126 to 128 °C.

In the case of `N#CCN(C(=O)c1ccccc1)C1CC1`, the melting point was 103 to 105 °C.

Work on `O=[N+]([O-])c1cc(S(=O)(=O)Cl)ccc1Br` yielded a melting point of 53 to 55 °C.

In the case of `CCOCc1c(C(=O)O)oc2ccccc12`, the melting point was 103 to 105 °C.

For `O=Cc1cc(Cl)c2ccccc2c1O`, the melting point was 94 to 96 °C.

Work on `O=C(CCl)NC1CCCCNC1=O` (centres undefined) yielded a melting point of 196 to 198 °C.

For `COCc1cc(Cl)n2ncnc2n1`, the melting point was 104 to 106 °C.

In the case of `O=C(O)CCCCCCN1C(=O)C=CC1=O`, the melting point was 79 to 81 °C.

Work on `Sc1ncccc1Cl` yielded a melting point of 204 to 206 °C.

`CC(C)(C)OC(=O)Nc1cscn1` gave a melting point of 153 to 155 °C.

`NC(Cc1nc2ccccc2[nH]1)=NO` gave a melting point of 138 to 140 °C.

With `O=[N+]([O-])c1cc(S(=O)(=O)Nc2nc3ccccc3nc2Cl)ccc1Cl` the melting point was 180 to 182 °C.

In the case of `O=C(O)c1cc([N+](=O)[O-])c(F)c([N+](=O)[O-])c1`, the melting point was 237 to 239 °C.

With `COc1ccc(S(=O)(=O)Cl)c(C)c1C` the melting point was 84 to 86 °C.

`Cc1nncn1-c1cccc(N)c1` showed a melting point of 109 to 111 °C.

Work on `Cc1ccc(Oc2ccc(N)cc2)nn1` yielded a melting point of 114 to 116 °C.

With `CCOC(=O)c1ccn(-c2ccccc2N)n1` the melting point was 79 to 81 °C.

`CNc1c(F)cccc1C(N)=O` showed a melting point of 186 to 188 °C.

For `Cc1ccc(C(=O)O)cc1NC(=O)Cc1ccncc1`, the melting point was 294 to 296 °C.
